Laboratory results taken from patent US8802638B1, “Flavonoid treatment of glycogen synthase kinase-based disease” (University of South Florida, priority 2007, dated 2014).

Experiments:
[1] = tested on: GSK-3α/β; experiment: Western blot of phosphorylated GSK-3α/β forms in SweAPP N2a cells; type: cell-based, murine; conditions: SweAPP N2a cells co-treated with luteolin or SB-415286 and GF109203X; data not shown
Procedure: (§1) Cultured cells or mouse brain were lysed in ice-cold lysis buffer described above, and an aliquot corresponding to 50 μg of total protein was electrophoretically separated using 12% Tris-HCl or 16.5% Tris-tricine gels. Electrophoresed proteins were then transferred to PVDF membranes, washed in dH2O, and blocked for 1 hr at ambient temperature in Tris-buffered saline (TBS; Bio-Rad) containing 5% (w/v) non-fat dry milk. After blocking, membranes were hybridized for 1 hr at ambient temperature with various primary antibodies. Membranes were then washed 3× for 5 min each in dH2O and incubated for 1 hr at ambient temperature with the appropriate HRP-conjugated secondary antibody (1:1,000). Antibodies were obtained against the amino-terminus and carboxyl-terminus of PS1 (Chemicon, Temecula, Calif.), amino-terminus and carboxyl-terminus of APP (22C11), actin (Roche, Basel, Switzerland), Aβ (6E10, 48G) (Signet Laboratories, Dedham, Mass.), phosphor-GSK3α (ser^21, clone BK202) (Upstate, Lake Placid, N.Y.), phospho-GSK3α/β (pTyr^279/216) (Sigma), phospho-GSK-3β (Ser^9) (Sigma) and total GSK-3α/β (Sigma). All antibodies were diluted in TBS containing 5% (w/v) of non-fat dry milk. Blots were developed using the luminol reagent (Pierce Biotechnology). Densitometric analysis was done as previously described using a FluorS Multiimager with Quantity One™ software (39). […] Antibodies used for Western blot included the APP-carboxyl-terminal antibody (1:50)), amino-terminal APP antibody (clone 22C11), or 6E10 (1:1,000), or actin antibody (1:1,500; as an internal reference control). γ-secretase activity was quantified in cell lysates using available kits based on secretase-specific peptides conjugated to fluorogenic reporter molecules.
The effect luteolin had on a variety of proteins related to and/or required for proper functioning of the γ-secretase complex was evaluated to establish the mechanism whereby luteolin modulates γ-secretase activity and subsequent Aβ generation. […]

[2] = tested on: PS1; experiment: Western blot of PS1 C-terminal fragment phosphorylation in SweAPP N2a cells; type: cell-based, murine
Procedure: (§2) Cultured cells or mouse brain were lysed in ice-cold lysis buffer described above, and an aliquot corresponding to 50 μg of total protein was electrophoretically separated using 12% Tris-HCl or 16.5% Tris-tricine gels. Electrophoresed proteins were then transferred to PVDF membranes, washed in dH2O, and blocked for 1 hr at ambient temperature in Tris-buffered saline (TBS; Bio-Rad) containing 5% (w/v) non-fat dry milk. After blocking, membranes were hybridized for 1 hr at ambient temperature with various primary antibodies. Membranes were then washed 3× for 5 min each in dH2O and incubated for 1 hr at ambient temperature with the appropriate HRP-conjugated secondary antibody (1:1,000). All antibodies were diluted in TBS containing 5% (w/v) of non-fat dry milk. Blots were developed using the luminol reagent (Pierce Biotechnology). Densitometric analysis was done as previously described using a FluorS Multiimager with Quantity One™ software. Immunoprecipitation was performed for detection of sAPP-α, sAPP-β and Aβ by incubating 200 μg of total protein of each sample with various sequential combinations of 6E10 (1:100) and/or 22C11 (1:100) antibodies overnight with gentle rocking at 4° C., and 10 μL of 50% protein A-Sepharose beads were then added to the sample (1:10; Sigma) prior to gentle rocking for an additional 4 hrs at 4° C. Following washes with 1× cell lysis buffer, samples were subjected to Western blot as described above. Antibodies used for Western blot included the APP-carboxyl-terminal antibody (1:50)), amino-terminal APP antibody (clone 22C11), or 6E10 (1:1,000), or actin antibody (1:1,500; as an internal reference control). γ-secretase activity was quantified in cell lysates using available kits (R&D Systems, Minneapolis, Minn.), based on secretase-specific peptides conjugated to fluorogenic reporter molecules.
The two bands of highest molecular weight, approximately 20 kD and 18 kD in size, represent phosphorylated PS1 CTFs with a smaller 16 kD band representing the more common CTF product indicative of PS1 endoproteolytic cleavage.
To confirm that the 20 kD and 18 kD bands were phosphorylated PS1 isoforms, SweAPP N2a cells were treated with luteolin (20 μM) prior to lysis and cell lysates incubated with calf intestine alkaline phosphatase (CIAP) (Fermentas, Hanover, Md.), to dephosphorylate any potential phosphorylated proteins, to eliminate skewing of electrophorectic mobilities. Following 30 minutes of incubation, the 20 kD band is not evident in the CIAP treated lysates, seen in FIGS. 21(A) through 22, and the 18 kD band reduced while endogenous CTF, 16 kD, appears to accumulate. When compared to lysates incubated with only reaction buffer, phosphorylated residues decrease in a time dependent manner, shown by the 20 kD CTF:16 kD CTF. […] Luteolin affects PS1 phosphorylation and may indicate a means by which γ-secretase activity may be regulated.
To determine if this phenomenon was specifically attributable to luteolin treatment or more generally in regards to GSK-3 inhibition, SweAPP N2a cells were treated with a range of doses of the GSK-3 inhibitor SB-415286 (BIOMOL®, Plymouth Meeting, Pa.). […] FIG. 24(B). GSK-3α and β was successfully knocked-down (>70%, data not shown) with siRNA in SweAPP N2a cells, substantiating the role of GSK-3α in this luteolin-mediated PS1 processing. […]

[3] = diosmetin formed from diosmin by intestinal flora; cited from earlier work
[4] = molecular target: T1, γ-secretase (Mus musculus, UniProt P49769); experiment: fluorometric assay for γ-secretase cleavage activity in SweAPP N2a cell lysates; type: cell-based, murine; conditions: relative to untreated control
T1 construct: endogenous in cells; host or cells: SweAPP N2a cells (lysates of treated cells)
Procedure: as §1, with “All antibodies were diluted in TBS containing 5% (w/v) of non-fat dry milk. Blots were developed using the luminol reagent (Pierce Biotechnology).” left out
Due to the implications on γ-secretase activity, luteolin's effect on SweAPP N2a cells was analyzed using a fluorometric assay for γ-cleavage.
Cultured cells or mouse brain were lysed in ice-cold lysis buffer described above, and an aliquot corresponding to 50 μg of total protein was electrophoretically separated using 12% Tris-HCl or 16.5% Tris-tricine gels. […] Densitometric analysis was done as previously described using a FluorS Multiimager with Quantity One™ software. […]

[5] = tested on: Tg2576 mice; conditions: 0.05% diosmin diet for 6 months
[6] = tested on: SweAPP N2a cells; experiment: APP proteolysis (Aβ ELISA, IP, APP CTF Western blot) in SweAPP N2a cells; type: cell-based, murine; conditions: result in words; ELISA/IP/Western blot
Procedure: Cultured cells or mouse brain were lysed in ice-cold lysis buffer described above, and an aliquot corresponding to 50 μg of total protein was electrophoretically separated using 12% Tris-HCl or 16.5% Tris-tricine gels. Electrophoresed proteins were then transferred to PVDF membranes, washed in dH2O, and blocked for 1 hr at ambient temperature in Tris-buffered saline (TBS; Bio-Rad) containing 5% (w/v) non-fat dry milk. After blocking, membranes were hybridized for 1 hr at ambient temperature with various primary antibodies. Membranes were then washed 3× for 5 min each in dH2O and incubated for 1 hr at ambient temperature with the appropriate HRP-conjugated secondary antibody (1:1,000). Antibodies were obtained against the amino-terminus and carboxyl-terminus of PS1 (Chemicon, Temecula, Calif.), amino-terminus and carboxyl-terminus of APP (22C11), actin (Roche, Basel, Switzerland), Aβ (6E10, 48G) (Signet Laboratories, Dedham, Mass.), phosphor-GSK3α (ser^21, clone BK202) (Upstate, Lake Placid, N.Y.), phospho-GSK3α/β (pTyr^279/216) (Sigma), phospho-GSK-3β (Ser^9) (Sigma) and total GSK-3α/β (Sigma). All antibodies were diluted in TBS containing 5% (w/v) of non-fat dry milk. Blots were developed using the luminol reagent (Pierce Biotechnology). Densitometric analysis was done as previously described using a FluorS Multiimager with Quantity One™ software (39). Immunoprecipitation was performed for detection of sAPP-α, sAPP-β and Aβ by incubating 200 μg of total protein of each sample with various sequential combinations of 6E10 (1:100) and/or 22C11 (1:100) antibodies overnight with gentle rocking at 4° C., and 10 μL of 50% protein A-Sepharose beads were then added to the sample (1:10; Sigma) prior to gentle rocking for an additional 4 hrs at 4° C. Following washes with 1× cell lysis buffer, samples were subjected to Western blot as described above. Antibodies used for Western blot included the APP-carboxyl-terminal antibody (1:50)), amino-terminal APP antibody (clone 22C11), or 6E10 (1:1,000), or actin antibody (1:1,500; as an internal reference control). γ-secretase activity was quantified in cell lysates using available kits based on secretase-specific peptides conjugated to fluorogenic reporter molecules.
SweAPP N2a cells and primary neuronal cells derived from Tg2576 mice were treated with varying doses of luteolin to examine luteolin's effect on APP proteolysis. Cellular extracts were collected and analyzed using immunoprecipitation (IP), Western blot, and ELISA. […] See FIGS. 1 through 2(B) and 5 through 6(B). SweAPP N2a and primary Tg2576-derived neuronal cells CTF profiles were analyzed following luteolin treatment to determine at which level luteolin impacts amyloid processing.

[7] = tested on: PS1-APP association; experiment: PS1-APP association, immunoprecipitation/Western blot in SweAPP N2a cells; type: cell-based, murine; conditions: 20 μM for 4 hrs or siRNA transfection
Procedure: as §2
Cell lysates of luteolin-treated SweAPP N2a cells were immunoprecipitated by PS1 antibody and probed for APP to clarify how phospho-PS1 CTF isoforms may regulate γ-secretase activity, seen in FIGS. 26(A) through 27(B). As illustrated in FIGS. 26(A) and (B), the APP-PS1 association is disrupted by luteolin, SB-415286 treatment, and GSK-3α siRNA. […] Thus, GSK-3α or, more specifically, downstream phosphorylation of the PS1 CTF plays an essential role in regulating the association of γ-secretase complex with its APP substrate.

[8] = tested on: TACE, ADAM10, sAPPα; experiment: non-amyloidogenic APP processing (TACE, ADAM10 maturation, sAPPα release); type: cell-based; conditions: data not shown
Source text: The presence of phosphorylated PS1 CTFs corresponds with reduction of Aβ generation and accumulation of the β-CTF of APP, as was observed following luteolin treatment. The accumulation β-CTFs following luteolin treatment is a fraction of β-CTF seen after direct γ-secretase inhibitor treatment (data not shown). In view of this finding, selective GSK-3 inactivation is a less toxic, more regulative, substrate-specific mode of γ-secretase inhibition. Earlier studies routinely employed phorbol-12,13-dibutyrate (PDBu), a potent PKC activator, as their phosphorylating agent. Thus, luteolin was tested for similar PKC activation, rather than a GSK-3 inhibitor. […] Additionally, there are no indications GSK-3α inhibition affects non-amyloidogenic processing of APP, since luteolin, SB-415286, and GSK-3α RNAi treatment have no effect on the maturation of TACE, ADAM10, or sAPPα release (data not shown), which are all strongly associated with PKC activation.

γ-secretase cleavage activity [4] | SMILES | PS1 CTF phosphorylation (phospho-PS1 CTF to PS1 CTF ratio) [2] | Aβ1-40, 42 production [6] | also measured
 | CN(C)CCCn1cc(C2=C(c3c[nH]c4ccccc34)C(=O)NC2=O)c2ccccc21 [GF109203X, reference compound] | Minor decreases in 20 kD and 18 kD phospho-PS1 CTF isoforms |  | GSK-3 inhibition on co-treatment with PKC inhibitor [1]: no effect on GSK-3 inhibition
just as efficacious as luteolin | COc1ccc(-c2cc(=O)c3c(O)cc(O)cc3o2)cc1O [diosmetin] | just as efficacious as luteolin |  | plasma half-life [3]: > 26 h
 | COc1ccc(-c2cc(=O)c3c(O)cc(O[C@@H]4O[C@H](CO[C@@H]5O[C@@H](C)[C@H](O)[C@@H](O)[C@H]5O)[C@@H](O)[C@H](O)[C@H]4O)cc3o2)cc1O [diosmin] |  |  | Aβ plaque burden (4G8 stained sections, image analysis) [5]: significantly reduced throughout the brain
results were not similar to luteolin | O=c1cc(-c2ccc(O)cc2)oc2cc(O)cc(O)c12 [apigenin, reference compound] |  | did not reduce Aβ1-40, 42 production to the same level as luteolin, diosmetin, and diosmin | 
 | O=C1NC(=O)C(c2ccccc2[N+](=O)[O-])=C1Nc1ccc(O)c(Cl)c1 [SB-415286, reference compound] | Alterations in phospho-PS1 CTF:PS1 CTF ratios were similar to prior experiments | congruent decreases in Aβ1-40, 42 generation | ratio of APP to actin (full-length APP levels) ([7]; 6E10 Western blot of lysates): no significant changes; APP-PS1 association ([7]; IP with anti-PS1 CTF, 6E10 blot): disrupted; maturation of TACE, ADAM10, or sAPPα release [8]: no effect
